Laboratory results reported in patent US11787850B2, “Peptidic TGF-beta antagonists” (priority 2015, dated 2023).

Tested on: TGF-β1-induced Smad3-driven (CAGA12-lux) transcriptional activity
Experiment: Luciferase reporter assay in HEK293-(CAGA)12 cells
Assay type: cell-based
Settings: 100 pM TGF-β1, 18 hours; for inhibition of TGF-β1-induced CAGA12-lux activity, peptide pre-treated with DMSO: 0.5% DMSO pre-treatment (FIG. 8); for inhibition of TGF-β1-induced CAGA12-lux activity, peptide in Tris buffer left untreated: no DMSO (FIG. 8)
Procedure: FIGS. 5A and 5B illustrate that some small molecular weight CD109-based peptides (Peptide A, P28, P21 and […]) inhibit TGF-β1-induced Smad3-driven transcriptional activity. […] Cell lysates were analyzed for luciferase activity and data are expressed as mean±standard deviation of relative light units (RLU). […] Under the conditions tested, peptide A, P28, P21 and P16 inhibited TGF-β1-induced transcriptional (CAGA12-lux) activity.
FIG. 6 illustrates that the small molecular weight CD109-based peptide P16 (but not P16-2, P11 or X-4) inhibit TGF-β1-induced Smad3-driven transcriptional activity. HEK293 cells stably transfected with the Smad3-responsive CAGA12-lux luciferase reporter were treated for 18 hours without (−) or with (+) […] TGF-β1 in the presence or absence of 10 nM of P16-2 (16 aa scrambled control), P11 (11 aa sequence), P16 (16 aa), X-4 (11 aa) or Tris-buffer (buffer control) as indicated. Cell lysates were analyzed for luciferase activity and data are expressed as mean±standard deviation of luciferase activity. Results are shown as luciferase activity for the peptides used.
FIG. 8 illustrates that DMSO treatment enhances the TGF-β inhibitory activity of Peptide X but not P21 or P16. HEK293 cells stably transfected with the Smad3-responsive CAGA12-lux luciferase reporter were treated for 18 hours without (−) or with (+) 100 pM TGF-β1 in the presence or absence of Peptide X (PX), P21 or P16. The peptides were previously dissolved in Tris buffer and left untreated or treated with DMSO prior to addition to the cells. Addition of Tris buffer or DMSO alone served as additional controls. Cell lysates were analyzed for luciferase activity and data are expressed as mean±standard deviation of luciferase activity. Results are shown as luciferase activity. […] P16 and P21 inhibited TGF-β1-induced CAGA12-lux activity and these effects were not enhanced by DMSO treatment. […]
FIG. 25 is a graph showing the ability of CD109-based peptides to inhibit TGF-β-induced, Smad3-driven transcriptional activity. HEK293 cells stably transfected with the Smad3-responsive CAGA12-lux luciferase reporter were treated for 18 hours without (−) or with (+) 100 pM TGF-b1 in the presence or absence of 10 nM of P16, P16.2, peptide A, P15, P14, P13, P12, P11, peptide X, P21, or 2% NH4OH buffer (buffer control) as indicated. Cell lysates were analyzed for luciferase activity and data are expressed as mean±standard deviation of luciferase activity.
HEK293 cells stably transfected with the Smad3-responsive CAGA12-lux luciferase reporter construct were incubated with dimeric or monomeric forms of peptide A as indicated and treated with 100 pM TGF-b overnight. Cell lysates were analyzed for luciferase activity. Data are presented as fold-activation compared to TGF-b1 treatment alone (scaled to 1.0). M+D, mixture of monomer and dimer.
Luciferase reporter assays were performed using a HEK293-(CAGA)12 cell line that stably expresses a TGF-β/Smad3-responsive (CAGA)12-luciferase reporter gene [Cash et al. 2013]. HEK293-(CAGA)12 cells were grown in 24-well plates to 70-80% confluency and serum-starved overnight. Cells were washed with PBS and treated with or without TGF-β1 in presence or absence of various CD109-based peptides as indicated in the figure legends. Cells were then washed twice with cold PBS and solubilized in 100 μl of Passive Lysis Buffer (Promega) for 30 min at 4° C. The cell lysates were assayed for luciferase and β-galactosidase activities using commercially available kits (BD Biosciences).
HEK293 cells stably transfected with the Smad3-responsive CAGA12-lux luciferase reporter were treated for 18 hours without (−) or with (+) 100 pM TGF-β1 in the presence or absence of 10 nM (FIG. 5A) or 5 nM (FIG. 5B) of peptide A (Pep A, 161 aa), P28 (28 aa peptide), P21 (21 aa peptide), P16 (16 aa peptide), P16.2 scrambled peptide (16 aa, scrambled P16 sequence) or Tris-buffer (negative control for peptides) as indicated. […]

Sequence	inhibition of TGF-β1-induced CAGA12-lux activity, peptide pre-treated with DMSO	inhibition of TGF-β1-induced CAGA12-lux activity, peptide in Tris buffer left untreated
ETWIWLDTNMGSRIYQ [Peptide P16]	not enhanced	inhibited
LGSSPHVRKHFPETWIWLDTNMGSRIYQEFEVTVPDSITS (Peptide X)	inhibited	did not
